According to patent publication US10189824B2, “Pyrimidine-diamine dual HSP90/TRAP1 inhibitors” (CalAsia Pharmaceuticals, Inc., priority 2014, dated 2019):

Legend:
[1] = biological target: human Hsp90; assay: Fluorescence polarization (FP) displacement assay, GA-FITC, Hsp90; format: binding; conditions: FP displacement of GA-FITC, 50 nM Hsp90; for IC50: read-out: Biochemical efficacy HSP90 IC50; for Ki: read-out: Biochemical efficacy HSP90 Ki
Description: (§1) Prior to transforming into BL21 (DE3) all the cloned vectors were sequence confirmed. Expressed proteins were purified using NTA resin (Life Technologies) followed by size exclusion chromatography using FPLC. The molecular mass of the purified proteins was confirmed by MALDI-TOF and assessed for purity by SDS-PAGE.
(§2) The assay conditions were 20 mM HEPES, pH-7.5, 50 mM KCl, 5 mM MgCl2, 20 mM sodium molybdate, 2 mM DTT, 0.01% NP40, 100 ug/ml BSA, 50 nM Hsp90 or 200 nM TRAP1, 1% DMSO, and 8 nM (for Hsp90) or 20 nM (for TRAP1) GA-FITC in the presence of increasing concentrations of test compound.

[2] = biological target: T1, TRAP1 (Homo sapiens, UniProt Q12931); assay: Fluorescence polarization (FP) displacement assay, GA-FITC, TRAP1; format: binding; conditions: FP displacement of GA-FITC, 200 nM TRAP1; for Ki: NA: Not active, read-out: Biochemical efficacy TRAP1 Ki; for IC50: read-out: Biochemical efficacy TRAP1 IC50
T1 construct: Recombinant full-length human Hsp90 and 459 TRAP1 were cloned; 6His (TEV-cleavable) (N); made in house; host or cells: E. coli BL21 (DE3)
T1 sequence (Q12931 60-704): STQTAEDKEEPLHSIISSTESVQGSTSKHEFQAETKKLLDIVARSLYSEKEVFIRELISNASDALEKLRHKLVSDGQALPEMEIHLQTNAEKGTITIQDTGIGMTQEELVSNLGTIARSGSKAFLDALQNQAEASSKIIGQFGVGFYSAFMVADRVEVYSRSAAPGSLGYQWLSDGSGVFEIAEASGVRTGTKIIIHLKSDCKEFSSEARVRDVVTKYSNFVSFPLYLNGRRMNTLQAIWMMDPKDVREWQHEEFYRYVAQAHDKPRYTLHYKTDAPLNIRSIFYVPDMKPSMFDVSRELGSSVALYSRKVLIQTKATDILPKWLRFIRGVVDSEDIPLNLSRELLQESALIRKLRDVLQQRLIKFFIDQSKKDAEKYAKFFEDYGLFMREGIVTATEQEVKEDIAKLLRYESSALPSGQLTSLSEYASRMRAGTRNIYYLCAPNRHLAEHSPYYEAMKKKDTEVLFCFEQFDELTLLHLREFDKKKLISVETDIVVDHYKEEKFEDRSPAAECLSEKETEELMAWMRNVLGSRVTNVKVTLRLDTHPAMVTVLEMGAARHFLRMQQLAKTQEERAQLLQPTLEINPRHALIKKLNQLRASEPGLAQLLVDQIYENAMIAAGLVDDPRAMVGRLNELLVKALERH
Description: as §1, §2

[3] = tested on: GBM10; assay: Cellular efficacy in Mayo Clinic GBM PDX cell line GBM10; format: cell-based
Description: (§3) Short-term explant cultures from PDX models were seeded into 96-well Perfecta3D hanging drop plates to form a single spheroid in each well after 2 days. The spheroids were transferred to a round bottom 96 well plate by centrifugation and then incubated with graded concentrations of test compound (8 spheroids per compound concentration). Spheroid volumes were monitored every 6 hours over the course of 5 days using the IncuCyte system (Essen BioScience, MI, US) to provide a growth curve akin to a tumor regrowth assay.

[4] = tested on: GBM39; assay: Cellular efficacy in Mayo Clinic GBM PDX cell line GBM39; format: cell-based
Description: as §3

[5] = tested on: GBM43; assay: Cellular efficacy in Mayo Clinic GBM PDX cell line GBM43; format: cell-based
Description: as §3

[6] = tested on: Hsp90 client proteins (Akt1, ERK1) in MDA-MB-231 cell line; assay: Cellular biomarker assays (Akt1, ERK1 ELISA) in MDA-MB-231; format: cell-based; conditions: 48 hours
Description: (§4) Cellular biomarker assays: Cells were cultured in culture medium (RPMI-glutamax, 10% FCS, 100 units/ml penicillin, and 100 μg/ml streptomycin). Cells were passaged after lifting using 0.25% trypsin/EDTA, and 3×10^5 cells were seeded in each well of six well plates (total volume 2.5 mL/well). After the cells were cultured for 24 hours, increasing concentrations of Hsp90 inhibitor were added to wells in triplicate from DMSO-containing stock solutions and mixed by gently by stirring. Final DMSO concentration in all wells was 0.25%. The treated cells were then cultured for 48 hours prior to lysate preparation. The culture media was removed from wells, and the wells were washed twice with DPBS containing 1 mM CaCl2 and 0.5 mM MgCl2. […] The protein concentration in the cell lysates was determined using the BCA protein assay kit used according to the manufacturer's recommendations. […] Protein concentrations were determined using a micro-titer plate reader (Model # Synergy HT; BioTek Inc., Winooski, Vt.).
(§5) Akt1 and ERK1 levels in the cell lysates were measured using kits from R&D Systems used according to the manufacturer's recommendations. […] Akt1 and ERK1 levels were determined using a micro-titer plate reader (Model # Synergy HT; BioTek Inc., Winooski, Vt.) (FIGS. 5 and 8).

[7] = tested on: Hsp90 client proteins (Akt1, ERK1) in HEI193; assay: Cellular biomarker assays (Akt1, ERK1 ELISA) in HEI193; format: cell-based, human; conditions: 48 hour treatment
Description: as §4, §5

[8] = tested on: Hsp90 client proteins (EGFR and Akt1) in Mayo Clinic GBM PDX cell lines; assay: Cellular biomarker assays (EGFR, Akt1 ELISA) in Mayo Clinic GBM PDX cell lines; format: cell-based; conditions: 48 hours; three cell lines
[9] = tested on: Mayo Clinic patient derived GBM tumor cells; assay: Mayo Clinic patient derived GBM tumor cell proliferation; format: cell-based; conditions: 132 hours
Description: as §3

[10] = tested on: HEI193 cells; assay: TMRE assay, HEI193 cell mitochondrial integrity; format: cell-based, human; conditions: observed as early as 2 hours after treatment
Description: Mitochondrial integrity was evaluated using Tetramethylrhodamine ethyl ester (TMRE) assay. A TMRE assay kit (Abcam) was used to evaluate Hsp90/TRAP1 inhibitor-induced changes in mitochondrial membrane potential. […] TMRE (200 nM) was then added to wells for 30 min and monitored for changes in fluorescence activity using a fluorescence plate reader (ex544/em 590) after washing the cells. Specific TMRE fluorescence was calculated by comparison to matched wells pretreated with the depolarizing proton ionophore carbonyl cyanide 4-(trifluoromethoxy)phenylhydrazone (FCCP) at 20 uM 10 min prior to addition of TMRE. For mitochondria assays, mitochondria was isolated using a kit from Thermoscientific and loaded with 0.1 mM TMRE. TMRE-loaded mitochondria (2 μg per well) were incubated with test compounds and monitored kinetically at 30° C. for changes in fluorescence using a flurorescence plate reader (ex 544/em 590) (FIGS. 6A, 9A and 12).

Structure (SMILES) | IC50 [1] | Ki [1] | Ki [2] | IC50 [2] | EC50 [3] | EC50 [4] | EC50 [5] | Effect on Akt1 and ERK1 levels, MDA-MB-231 [6] | Effect on Akt1 and ERK1 levels, HEI193 [7] | Effect on EGFR and Akt1 levels, GBM PDX cell lines [8] | Effect on patient derived GBM tumor cell proliferation [9] | Effect on TMRE fluorescence in HEI193 cells [10]
Cc1cnc(CN(CC2(c3ccc(F)cc3)CCOCC2)c2cc(Cl)nc(N)n2)c(C)c1Cl [Compound B, 6-chloro-4-N-[(4-chloro-3,5-dimethylpyridin-2-yl)methyl]-4-N-{[4-(4-fluorophenyl)oxan-4-yl]methyl}pyrimidine-2,4-diamine] | 0.033 µM | 0.008 µM | 0.011 µM | 0.085 µM | 1.2 µM | 0.62 µM | 0.87 µM | suppression of Hsp90 client proteins | reduction of Hsp90 client proteins | suppression of Hsp90 client proteins | inhibit | 
COc1c(C)cnc(CN(CC2(c3ccccn3)CCOCC2)c2cc(Cl)nc(N)n2)c1C [Compound E, 6-chloro-4-N-[(4-methoxy-3,5-dimethylpyridin-2-yl)methyl]-4-N-{[4-(pyridin-2-yl)oxan-4-yl]methyl}pyrimidine-2,4-diamine] | 0.096 µM | 0.024 µM | 0.138 µM | 1.1 µM |  |  |  |  |  |  |  | 
CC(C)c1cc(-c2n[nH]c(=O)n2-c2ccc3c(ccn3C)c2)c(O)cc1O [Ganetespib, reference compound] |  |  |  |  |  |  |  |  |  |  |  | significantly weaker response
COc1ccnc(CN(CC2(c3ccc(F)cc3)CCOCC2)c2cc(Cl)nc(N)n2)c1C [Compound C, 6-chloro-4-N-{[4-(4-fluorophenyl)oxan-4-yl]methyl}-4-N-[(4-methoxy-3-methylpyridin-2-yl)methyl]pyrimidine-2,4-diamine] | 0.087 µM | 0.022 µM |  | > 4 µM |  |  |  |  |  |  |  | 
COc1c(C)cnc(CN(CC2(c3cccc(C)n3)CCOCC2)c2cc(Cl)nc(N)n2)c1C [Compound D, 6-chloro-4-N-[(4-methoxy-3,5-dimethylpyridin-2-yl)methyl]-4-N-{[4-(6-methylpyridin-2-yl)oxan-4-yl]methyl}pyrimidine-2,4-diamine] | 0.054 µM | 0.014 µM | 0.068 µM | 0.543 µM |  |  |  |  |  |  |  | 
